# Assay results: patent US20090105301A1, “9A-SUBSTITUTED AZALIDES FOR THE TREATMENT OF MALARIA” (priority 2006, published 2009)
# Columns and labels:
# Type in all cases: cell-based, Plasmodium falciparum
# [1] = test system: P. falciparum D6 (CDC/Sierra Leone I, D-6); assay: In vitro screening protocol I, [3H]-hypoxanthine incorporation, D6; settings: In vitro screening protocol I, P. falciparum D6; for IC50: Plasmodium falciparum, read-out: IC50 D6
# Description: (§1) Agents Chemother. 27 (4) (1985) 525-530). The system was limited to the assessment of the intrinsic activity against the erythrocytic asexual life cycle (blood schizontocides). Two Plasmodium falciparum clones from CDC/Indochina III (W-2) and CDC/Sierra Leone I (D-6) (Oduola A M, Weatherly N F, Bowdre J H, Desjardins R E. Plasmodium falciparum: cloning by single-erythrocyte micromanipulation and heterogeneity in vitro. Exp Parasitol. 66 (1) (1988) 86-95) were used for all assays. TM91C235, a multiple drug resistant isolate from Thailand (Antimicrob. Agents Chemother. 46 (8) (2002) 2627 and Antimicrob. Agents Chemother. 43 (3) (1999) 598-602), was used for the prescreening assay. W-2 is resistant to chloroquine, quinine, and pyrimethamine and susceptible to mefloquine. D-6 tends to be more resistant to mefloquine and susceptible to chloroquine, quinine, and pyrimethamine. All documents cited in this paragraph are incorporated by reference in their entirety.
# (§2) All parasites were maintained in continuous long term cultures in RPMI-1640 medium supplemented with 6% washed human A positive (A+)(erythrocytes, 25 mM Hepes, […], and 10% heat inactivated A+ human plasma or ALBUMAX® (lipid-rich bovine serum albumin; Invitrogen, Carlsbad, Calif.). All cultures and assays were conducted at 37° C. under an atmosphere of 5% CO2 and 5% O2, with a balance of N2.
# (§3) The prescreening assay uses TM91C235 diluted at a 0.4% parasitemia in a 1% hematocrit in folic acid free and p-aminobenzoic acid free media RPMI-1640 and ALBUMAX®. […] The compound is further diluted in folate free (FF) culture medium with ALBUMAX® for the first initial starting concentration. The rest of the stock drug solution was kept at −70° C. The isolate was preexposed, in duplicate, at three concentrations (25,000 ng/ml, 2,500 ng/ml, and […]) of the test compound for 48 hr in a 96-well microtiter plate (MTP) using the BIOMEK® 2000 automated laboratory workstation. Each MTP contains chloroquine as control to assess the relative activity of the compound and to monitor the response of TM91C235.
# (§4) After the preincubation, [^3H]-hypoxanthine was added to each well of the MTP. (The assay relies on the incorporation of radiolabeled hypoxanthine by the parasites, which indicates reproduction, and inhibition of isotope incorporation was attributed to activity of known or candidate antimalarial drugs). After 72 hours of total incubation time, the MTP were frozen to lyse the erythrocytes and parasites. The parasite DNA was recovered by harvesting the lysate onto glass-fiber filter plates using a Packard FilterMate™ Cell Harvester. The radioactivity was counted on a Packard TopCount™ microplate scintillation counter.
# (§5) The serial dilution assay was conducted using the same assay conditions and stock solution of the compound used for the preliminary screen, described above. Both the D-6 and the W-2 clones were used. The compounds were diluted two-fold over 11 different concentration ranges with a starting concentration that was based on the preliminary screen. For each drug, the concentration response profile was determined and 50% inhibitory concentrations (IC50) were determined by using a non-linear, logistic dose response analysis program. […] For each assay, the IC50 for each clone was determined against the known antimalarials chloroquine and mefloquine. These control values established the compound's relative parasite susceptibility profile compared to known antimalarials. […]
# [2] = test system: P. falciparum W2 (CDC/Indochina III, W-2); assay: In vitro screening protocol I, [3H]-hypoxanthine incorporation, W2; settings: In vitro screening protocol I, P. falciparum W2; for IC50: Plasmodium falciparum, read-out: IC50 W2
# Description: as §1, §2, §3, §4, §5
# P. falciparum TM91C235 = assay: In vitro screening protocol I, [3H]-hypoxanthine incorporation, TM91C235; settings: In vitro screening protocol I, P. falciparum TM91C235; for IC50: Plasmodium falciparum, read-out: IC50 TM91C235
# Description: as §1, §2, §3, §4, §5
compound,measurement,setting,value
"CC[C@H]1OC(=O)[C@H](C)[C@@H](O[C@H]2C[C@@](C)(OC)[C@@H](O)[C@H](C)O2)[C@H](C)[C@@H](O[C@@H]2O[C@H](C)C[C@H](N(C)C)[C@H]2O)[C@](C)(O)C[C@@H](C)CN(CCCNCc2ccc3ccccc3n2)[C@H](C)[C@@H](O)[C@]1(C)O [Example 1, 9a-{3-[(Quinolin-2-yl-methyl)amino]propyl}-9-deoxo-9-dihydro-9a-aza-9a-homoerythromycin A]",IC50,[1],0.1 to 0.2 µg/mL
same,IC50,[2],< 0.1 µg/mL
same,IC50,P. falciparum TM91C235,< 0.1 µg/mL
"CC[C@H]1OC(=O)[C@H](C)[C@@H](O)[C@H](C)[C@@H](O[C@@H]2O[C@H](C)C[C@H](N(C)C)[C@H]2O)[C@](C)(O)C[C@@H](C)CN(CCCNCc2ccc3ccccc3n2)[C@H](C)[C@@H](O)[C@]1(C)O [Example 2, 9a-{3-[(Quinolin-2-yl-methyl)amino]propyl}-3-O-decladinosyl-9-deoxo-9-dihydro-9a-aza-9a-homoerythromycin A]",IC50,[1],0.2 to 1 µg/mL
same,IC50,[2],0.1 to 0.2 µg/mL
same,IC50,P. falciparum TM91C235,0.1 to 0.2 µg/mL
"CC[C@H]1OC(=O)[C@H](C)[C@@H](O)[C@H](C)[C@@H](O)[C@](C)(O)C[C@@H](C)CN(CCCNCc2ccc3ccccc3n2)[C@H](C)[C@@H](O)[C@]1(C)O [Example 3, 9a-{3-[(Quinolin-2-yl-methyl)amino]propyl}-3-O-decladinosyl-5-O-dedesosaminyl-9-deoxo-9-dihydro-9a-aza-9a-homoerythromycin A]",IC50,[1],3.5 to 5 µg/mL
same,IC50,[2],0.2 to 1 µg/mL
same,IC50,P. falciparum TM91C235,1 to 2.5 µg/mL
"CC[C@H]1OC(=O)[C@H](C)[C@@H](O[C@H]2C[C@@](C)(OC)[C@@H](O)[C@H](C)O2)[C@H](C)[C@@H](O[C@@H]2O[C@H](C)C[C@H](N(C)C)[C@H]2O)[C@](C)(O)C[C@@H](C)CN(CCCNCc2cnc3ccccc3c2)[C@H](C)[C@@H](O)[C@]1(C)O [Example 4, 9a-{3-[(Quinolin-3-yl-methyl)amino]propyl}-9-deoxo-9-dihydro-9a-aza-9a-homoerythromycin A]",IC50,[1],0.1 to 0.2 µg/mL
same,IC50,[2],< 0.1 µg/mL
same,IC50,P. falciparum TM91C235,< 0.1 µg/mL
"CC[C@H]1OC(=O)[C@H](C)[C@@H](O)[C@H](C)[C@@H](O[C@@H]2O[C@H](C)C[C@H](N(C)C)[C@H]2O)[C@](C)(O)C[C@@H](C)CN(CCCNCc2cnc3ccccc3c2)[C@H](C)[C@@H](O)[C@]1(C)O [Example 5, 9a-{3-[(Quinolin-3-yl-methyl)amino]propyl}-3-O-decladinosyl-9-deoxo-9-dihydro-9a-aza-9a-homoerythromycin A]",IC50,[1],0.2 to 1 µg/mL
same,IC50,[2],0.1 to 0.2 µg/mL
same,IC50,P. falciparum TM91C235,0.1 to 0.2 µg/mL
"CCC1OC(=O)C(C)C(O)C(C)C(O)C(C)(O)CC(C)CN(CCCNCc2cnc3ccccc3c2)C(C)C(O)C1(C)O (stereo not drawn) [Example 6, 9a-{3-[(Quinolin-3-yl-methyl)amino]propyl}-3-O-decladinosyl-5-O-dedesosaminyl-9-deoxo-9-dihydro-9a-aza-9a-homoerythromycin A]",IC50 D6,[1],F (2800 < X ≦ 3500)
same,IC50 W2,[2],C (200 < X ≦ 1000)
same,IC50 TM91C235,P. falciparum TM91C235,D (1000 < X ≦ 2500)
"CCOc1ccc2ccccc2c1CNCCCN1C[C@H](C)C[C@@](C)(O)[C@H](O[C@@H]2O[C@H](C)C[C@H](N(C)C)[C@H]2O)[C@@H](C)[C@H](O[C@H]2C[C@@](C)(OC)[C@@H](O)[C@H](C)O2)[C@@H](C)C(=O)O[C@H](CC)[C@@](C)(O)[C@H](O)[C@H]1C [Example 7, 9a-[3-({[2-(Ethyloxy)-naphthalen-1-yl]methyl}amino)propyl]-9-deoxo-9-dihydro-9a-aza-9a-homoerythromycin A]",IC50,[1],< 0.1 µg/mL
same,IC50,[2],< 0.1 µg/mL
same,IC50,P. falciparum TM91C235,< 0.1 µg/mL
"CC[C@H]1OC(=O)[C@H](C)[C@@H](O)[C@H](C)[C@@H](O[C@@H]2O[C@H](C)C[C@H](N(C)C)[C@H]2O)[C@](C)(O)C[C@@H](C)CN(CCCNCc2cccc3ccccc23)[C@H](C)[C@@H](O)[C@]1(C)O [Example 9, 9a-{3-[(Naphtalen-1-yl-methyl)amino]propyl}-3-O-decladinosyl-9-deoxo-9-dihydro-9a-aza-9a-homoerythromycin A]",IC50 D6,[1],A (X ≦ 100)
same,IC50 W2,[2],A (X ≦ 100)
same,IC50 TM91C235,P. falciparum TM91C235,A (X ≦ 100)
